In patent US10792260B2, “Retinopathy treatment” (CHS Pharma, Inc., priority 2013, dated 2020):

Columns and labels:
ARPE19 cells [1] = test: TBHP induced oxidative stress, cell viability by MTS assay; conditions: for protection against TBHP damage as measured by cell viability: 24 hours pretreatment, varying concentrations of TBHP
Protocol: Cell culture studies using RPE cells—For cell culture experiments human RPE cell line ARPE19 (ATCC # CRL 2302) purchased from American Type Culture Collection (Rockville, Md.) was used. Cells were maintained in DMEM F-12 supplemented with L-glutamine. The culture media also contained 10% fetal bovine serum, 100 units/ml penicillin and 100 ug/ml streptomycin at 37 C and 5% CO2. Cells from passages two to five were treated with either no drug or a range of concentrations of the experimental drugs prior to exposing them to oxidative stress. Oxidative stress was induced chemically by adding tert-butyl hydrogen peroxide (TBHP) or by exposing the cells to UVB light. ARPE19 cells were plated in 96 well plates at a concentration of 10,000 cells/well. Change in cellular viability was measured using the MTS assay kit from Promega (Madison, Wis.).
Experiments involving TBHP induced oxidative stress—ARPE19 cells were grown for 24 hours in 96 well plates in DMEM F-12 complete media. Then they were either treated with no drug or pre-incubated with the experimental drug for 24 hours. The next day the cells were exposed to a range of concentrations (175 μM to 300 μM) of TBHP for 24 hours. On the following day cell viability was measured by the MTS assay (Promega) according to the manufacturer's protocol and which was measured by absorbance at 490 nm using a colorimetric microtiter plate reader (SpectraMax Plus 384; Molecular Devices).
(§2) Cell viability assays—Cellular viability was determined using the CellTiter 96 Aqueous One Cell Proliferation Assay from Promega (Madison, Wis.) as described elsewhere (Marchetti et al, 2009). This assay contains a tertrazolium salt that is converted to formazan dye by the activity of mitochondrial dehydrogenases. The change in color imparted by this conversion was detected by measuring absorbance at 490 nm using a colorimetric microtiter plate reader (Spectramax Plus 384, Molecular Devices).
(§3) Statistical analysis—Unless otherwise mentioned, results of all cell viability experiments represent the mean of three replicates of a representative experiment. The error bars indicate standard deviations. The means were compared using standard t-test and P values <0.05 were considered to be statistically significant.

ARPE19 cells [2] = test: UVB radiation induced damage, cell viability by MTS assay
Protocol: Cell culture studies using RPE cells—For cell culture experiments human RPE cell line ARPE19 (ATCC # CRL 2302) purchased from American Type Culture Collection (Rockville, Md.) was used. Cells were maintained in DMEM F-12 supplemented with L-glutamine. The culture media also contained 10% fetal bovine serum, 100 units/ml penicillin and 100 ug/ml streptomycin at 37 C and 5% CO2. Cells from passages two to five were treated with either no drug or a range of concentrations of the experimental drugs prior to exposing them to oxidative stress. […] ARPE19 cells were plated in 96 well plates at a concentration of 10,000 cells/well. Change in cellular viability was measured using the MTS assay kit from Promega (Madison, Wis.).
Exposure of RPE cells to UVB radiation—For UV radiation assays, the ARPE19 cells were plated in 96 well plates. After 24 hours of incubation with or without our drug the cells were exposed to UVB light (Ultraspec 2000, Pharmacia Biotech) that emit wavelengths at a range of 290 nm to 370 nm. UVB light at intensities of either 800 mj/cm2 or 1200 mj/cm2 were used for our experiments. The duration of exposure of the two energy levels were determined using the formula: Hλ=t×Eλ, where Hλ is the energy level (J/cm2) t is the duration of exposure in seconds and the Eλ is the irradiance (W/cm2) of the UVB source. Irradiance was measured at 1.3 W/cm2, and the exposure times for energy levels of 800 mj/cm2 and 1200 mj/cm2 were calculated to be 9 minutes 14 seconds and 14 minutes 24 seconds, respectively. Immediately after the UVB exposure, the media was replaced with fresh complete DMEM F-12 medium and after 24 hours of incubation at 37° C. and 5% CO2, cellular viability was measured using the MTS assay.
as §2, §3

Hsp27 = test: Western blotting of preconditioning marker Hsp27 in ARPE19 cells; format: cell-based, human; conditions: RPE cells pretreated for 48 hours, 200 μM
Protocol: (§1) Western blotting protocol—Western blotting was carried out on proteins isolated from ARPE19 cells cultured in 60 mm dishes with no drug or 200 μM sulindac or a combination of 200 μM sulindac and 2 μM chelerythrine. Actin and GAPDH were used as control for standardizing protein concentrations. Two late phase preconditioning markers, Hsp27 and iNOS were detected with antibodies (Sant Cruz Biotechnology).

BALB/c mice = test: Photooxidative stress in vivo study (light damage, intravitreal injection)
Protocol: Photooxidative stress in vivo study—The procedures for the in vivo experiments conformed to the ARVO Statement for the Use of Animals in Ophthalmic and Vision Research and were approved by the IACUC at FAU. For the in vivo photooxidative stress experiments albino BALB/c mice were divided into two groups. Mice belonging to the control group were kept in normal light of 12 hr light/dark cycle and not injected with any drug. The animals of the experimental group were dark-adapted for 24 hours after which they were anesthetized with ketamine/xylazine and injected intravitrealy with sulindac, total volume injected was 2 μl in each eye. Concentration of injected sulindac was 0.094 μg/μl. To prepare our injection, the sulindac powder was first dissolved in Tris buffer (pH 8.0) at a concentration of 200 mM. This 200 mM stock was further diluted in sterile PBS to get the appropriate dilution required for the injections. The sulindac solution was injected into the right eye and PBS in the left eye. The animals in the experimental group received atropine for pupil dilation followed by exposure to continuous bright white light. The intensity and duration of light exposure was 6000 lux for 24 hours. Following light exposure, animals were kept in normal light cycle for 5 days prior to harvesting the ocular tissues for histological or biochemical analysis.
Biochemical analysis of ocular tissues—After the completion of the treatment, animals were euthanized using isoflurane inhalation and eyes were enucleated. Following enucleation, the lenses were removed and retinas were carefully removed and washed in PBS. The retinas were homogenized in RIPA lysis buffer and total protein was isolated. The retinal protein was used for evaluation of preconditioning markers and rhodopsin through Western blotting.
Analysis of photoreceptor (PR) cell viability—The eyes were enucleated and fixed in 2.5% glutaraldehyde and 2% formaldehyde, bisected along the vertical meridian, embedded, and retinal sections at 50 microns obtained. Photoxidative stress-induced loss of PR cells was quantified in LM sections by counting the number of ONL nuceli from a series of digitized images of retinal sections.

iNOS = test: Western blotting of preconditioning marker iNOS in ARPE19 cells; format: cell-based, human; conditions: RPE cells pretreated for 48 hours, 200 μM
Protocol: as §1

[3] = inhibitor 2 uM added simultaneously with sulindac
[4] = eyes treated prior to light exposure
[5] = intravitreal 2 μl of 0.094 μg/μl before 6000 lux for 24 hours

CCCCCC(O)CCCC(=O)O (stereo not drawn) [5-HD, 5-hydroxydecanoic acid]
reversal of sulindac's protective role against TBHP (ARPE19 cells [1]; mK(ATP) channel blocker 50 uM or 75 uM co-incubated with sulindac): almost complete reversal

CCC(=O)NC[C@H](Cc1ccc(OCCc2nc(-c3ccccc3)oc2C)cc1)N/C(C)=C\C(=O)c1ccc(C(F)(F)F)cc1 [GW 6471]
effect on sulindac's protection of RPE cells against TBHP induced stress (ARPE19 cells [1]; PPAR alpha antagonist added with sulindac): prevented the protection

O=c1c2nc(Br)n([C@@H]3O[C@@H]4CO[P@@](O)(=S)O[C@H]4[C@H]3O)c2nc2[nH]c(-c3ccccc3)cn12 [Rp-Br-8-PET-cGMPs]
reversal of protection by sulindac preincubation (UVB damage) on PKG inhibition (ARPE19 cells [2]; PKG inhibitor with sulindac): significantly reversed

COc1ccc2c(c[n+](C)c3c4cc5c(cc4ccc23)OCO5)c1OC [chelerythrine]
reversal of protective effect of sulindac against UV damage (ARPE19 cells [2]; [3]): significantly reversed the protective effect
reversal of protective effect of sulindac against TBHP damage (ARPE19 cells [1]; [3]): significantly reversed the protective effect

CC(=O)c1c(O)c(C)c(O)c(Cc2c(O)c3c(c(C(=O)/C=C/c4ccccc4)c2O)OC(C)(C)C=C3)c1O [rottlerin]
reversal of the sulindac protection against UVB (ARPE19 cells [2]; inhibitor 3 uM with sulindac): no reversal

CC1=C(CC(=O)O)c2cc(F)ccc2/C1=C\c1ccc(S(C)(=O)=O)cc1 [sulindac sulfone]
protection against UV damage (cell viability) (ARPE19 cells [2]; 200 uM, in place of sulindac): complete protection

CC1=C(CC(=O)O)c2cc(F)ccc2/C1=C\c1ccc([S+](C)[O-])cc1 (stereo not drawn) [sulindac]
induction of Hsp27 (Hsp27): significant induction
protection against UVB exposure (cell viability) (ARPE19 cells [2]; 200 uM, 24 hours pretreatment, 1200 mj UVB): about 50%
protection against TBHP damage as measured by cell viability (ARPE19 cells [1]; sulindac 125 uM): essentially complete protection
protection against TBHP damage as measured by cell viability (ARPE19 cells [1]; sulindac 200 uM): essentially complete protection
Hsp27 level in retinal total protein (Western blotting) (BALB/c mice; [4]): upregulation
iNOS level in retinal total protein (Western blotting) (BALB/c mice; [4]): upregulation
Rhodopsin levels by Western blotting, treated eye compared to PBS-treated eye (BALB/c mice; [5]): higher
protection of photoreceptors against photooxidative stress induced loss of viability (histology) (BALB/c mice; [5]): protection of photoreceptors
thickness of the photoreceptor cell nuclear layer, greater than PBS-treated eye (BALB/c mice; intravitreal 2 μl of 0.094 μg/μl before 6000 lux for 24 hours, histological sections): about 40%
induction of iNOS (iNOS): significant induction

O=S(=O)(O)c1cc(O)c(O)c(S(=O)(=O)O)c1 [tiron]
reversal of sulindac's protection against TBHP (ARPE19 cells [1]; ROS scavenger 1 uM or 2 uM coincubated with sulindac): complete reversal
